The conditions of this series: pH 7.4.

Compound `NS(=O)(=O)c1cc2cc(C(=O)NCC(O)CO)sc2s1` (configuration not stated) gave a logD of 0.35.

For the compound `CS(=O)CCNC(=O)c1cc2cc(S(N)(=O)=O)sc2s1` (configuration not stated), the logD is -0.15.

As a reminder, the logD is lipophilicity at a set pH, counting ionised and neutral species.

These data come from the SangsterLogP compilation.
